# Patent US11779597B2, “Method of treating Parkinson's and other neurodegenerative diseases” (Vector Vitale IP LLC, priority 2019, dated 2023)
# Key:
# Type in all cases: in vivo
# microglia = test: Functional profile of microglia in 6-OHDA rat models after prophylactic administration; settings: prophylactic i.p.
# Description: (§1) Methods: Adult mature rodents were used in the study. […] Before prophylactic administration of the experimental drugs, the animals underwent an open field test to assay their general locomotor activity levels and anxiety. The prophylactic course consisted of 10 daily intraperitoneal injections of the drugs (in the case of combination drug, its components were administered at an interval of 2 hours). After the end of prophylactic course, Parkinson's disease was modelled in the animals. […] Ten days after the last (second) apomorphine test, the animals' behavioral responses were assessed in the open field test followed by euthanasia and analysis of functional (metabolic and phenotypic) profiles of phagocytes of different localization. Thus, the study of the functional profile of phagocytes in rat models of Parkinson's disease was performed on day 28 after the end of the course of prophylactic treatment with the experimental drugs. Resident peritoneal macrophages were isolated from sterile cell suspension of peritoneal exudate; enrichment of the suspension was carried out by 2-hour adhesion. Non-adherent and dead cells were separated by centrifugation. Functional characteristics of circulating phagocytes (monocytes and neutrophils) were evaluated in whole blood taken into a tube containing EDTA used as an anticoagulant. Mononuclear and polymorphonuclear phagocytes were analyzed on a flow cytofluorimeter using a gating method. Phagocytes of microglia were isolated using a Percoll density gradient. To assess the phenotypic profile of phagocytes, expression indices of the pan-phagocytic marker CD14 (co-receptor of the bacterial lipopolysaccharide) and the marker of alternative polarization of phagocytes CD206 (mannose receptor 1) were used. To characterize the metabolic profile, oxidative metabolism and phagocytic activity of microglia as well as the pathway of arginine metabolism were studied using flow cytometry and spectrometric methods respectively. FITC-labeled Staphylococcus aureus Wood 46 was used as the object of phagocytosis. The hemogram parameters were analyzed on the hematological analyzer Particle counter model PCE 210 (ERMA, Japan) adapted for the study of blood cells of rats and mice.
# [1] = system: LPS rat models of Parkinson's disease; test: Elevated plus maze
# Source text: Method. The elevated plus maze is a widely used behavioral assay for rodents that makes it possible to assess sedative or anxiogenic effects of agents and to define mechanisms underlying anxiety-related behavior, as well as to evaluate the motor activity of rats and levels of their exploratory activity that may correlate with the data collected in the open field test. Campos A C, et al., Braz J Psychiatry. 2013; 35 Suppl 2:S101-11. doi: 10.1590/1516-4446-2013-1139; Braun A A, et al., Neurobiol Learn Mem. 2012; 97(4):402-8. doi: 10.1016/j.nlm.2012.03.004). Behavior was assessed according to the following main parameters: the total distance travelled, the number of entries into each arm, the time spent in each arm, the total number of entries and percent of entries. […] Throughout the experiment, animals had free access to food and water. Before starting measurements, animals were given time to adapt to new an environment to reduce stress.
# The entire apparatus was elevated 50 cm above the floor. The central part of the junction was a 10 cm square center region where an animal was started facing an open arm. The apparatus was illuminated by two LED bulbs, 60 watts each, hanging at a height of 2 m. An IP camera was used to record the location of rats and scoring was completed later using the MATLAB-based software. The statistical analysis was performed using GraphPad Prism. Significance was set at <0.005. The data collected from the open field were analyzed using One-way ANOVA (Tukey test or Dunnett test) and Unpaired t-test or Mann-Whitney.
# Data analysis and interpretation. The test is based on the natural aversion of rats for open areas and their preference for closed areas of the apparatus. The levels of anxiety in animals are assessed as the total time spent in the open and closed arms. Animals that spend more time in the open arms have lower levels of anxiety compared to animals that prefer closed arms. In addition, like in an open field test, a novel environment in which an animal finds itself evokes conflict between fear and a desire to explore this environment. Therefore, the data collected from these two tests may correlate in the distance travelled and the time spent in the outer and inner perimeter. It is considered normal if during a 5-minute test, animals spend most of their time in the closed arms but also make a few entries to the open arms to explore. Accordingly, an increase in open arm entries is interpreted as a decreased anxiety in the animal. FIG. 51A and FIG. 51B show an example of analysis of a rat trajectory in the experimental arena.
# On the 1st day of the experiment, rats were either operated to model hemi-parkinsonism or sham operated. From the 9th to the 18th day of the experiment, the animals were injected either deuterium-depleted water or the test substance, according to their allocation into groups, for 10 days. On the 8th day of the experiment (before initiation of treatment—apomorphine test I) and on the 21st day of the experiment (after the end of administering the test substance —apomorphine test II) the animals underwent an apomorphine test to analyze the development of hemi-parkinsonism which correlates with the number of destroyed dopaminergic neurons. In addition, a follow-up analysis of fecal water content was carried out, i.e., before the start of treatment on the 8th day after the operation, as well as on the 21st (after the end of treatment) and the 28th day (before autopsy). On the 24th day of the experiment, behavioral tests were carried out in all groups. All animals were weighed before autopsy.
# [2] = system: dopaminergic neurons in the black substance in rat models of Parkinson's disease (6-OHDA); test: Apomorphine test / destruction of dopaminergic neurons after prophylactic administration; settings: 6-OHDA rat models
# Description: as §1, with “To characterize the metabolic profile, oxidative metabolism and phagocytic activity of microglia as well as the pathway of arginine metabolism were studied using flow cytometry and spectrometric methods respectively. FITC-labeled Staphylococcus aureus Wood 46 was used as the object of phagocytosis.” left out
substance,measurement,setting,value
^64Zn-enriched zinc aspartate [^64Zne-asp],level of CD14 expression in microglia,microglia,increase
same,level of CD206 expression in microglia,microglia,increase
same,oxidative metabolism / ROS production of microglia versus intact animals,microglia,at the level of control intact animals
same,"oxidative metabolism of microglia, higher than in control rat models of Parkinson's disease",microglia,twice
same,Number of entries into closed arms,"[1]; LPS + ^64Zn-asp, Gr. V",6.1 ± 8.279
same,Number of entries into open arms,"[1]; LPS + ^64Zn-asp, Gr. V",6.1 ± 8.279
same,Time spent in closed arms,"[1]; LPS + ^64Zn-asp, Gr. V",243.3 ± 54.2 s
same,Time spent in open arms,"[1]; LPS + ^64Zn-asp, Gr. V",17.55 ± 24.48 s
same,"Total distance travelled, cm","[1]; LPS + ^64Zn-asp, Gr. V",396.8 ± 107.7 cm
same,Total number of entries,"[1]; LPS + ^64Zn-asp, Gr. V",13 ± 16.66
same,behavioral parameters in the elevated plus maze (in words),[1]; group V (LPS+^64Zn-asp) versus group IV (LPS),had not produced any effects
same,increase of number of entries,[1]; group V versus group IV (LPS),1.3 times
same,increase of total distance travelled,[1]; group V versus group IV (LPS),1.2 times
same,Number of animals with 100% destruction of neurons (%),"[2]; prophylactic 10 daily i.p. injections, at completion of the experiment",35%
same,Rate of rotational movements in animals with 100% destruction of neurons (r/30 min),"[2]; prophylactic i.p., apomorphine test",224.3 ± 35.9 r/30 min
same,"animals with complete loss of neurons, less than in the control","[2]; prophylactic i.p., versus control 75%",over 50%
